In PMC6628362, “A New Strategy for Glioblastoma Treatment: In Vitro and In Vivo Preclinical Characterization of Si306, a Pyrazolo[3,4-d]Pyrimidine Dual Src/P-Glycoprotein Inhibitor” (Cancers, 2019):
Where “and” joins values, the source holds several entries; their conditions need not be identical. Identical values can stand only once. Marks after values point to notes of the source that are not given here.

Tests used:
U87-TxR = assay: MTT cell growth inhibition, MDR U87-TxR; format: cell-based, Human; details: 72 h, n = 3
Experimental: (§1) Human GBM cell lines U87 and LN-229 were purchased from the American Type Culture Collection, Rockville, MD, USA. U87-TxR cells were selected from U87 cells by continuous exposure to increasing concentrations of PTX [76]. LN-299, U87 and U87-TxR cells were grown in Minimum Essential Medium with 10% fetal bovine serum, 2 mM L-glutamine and 5000 U/mL penicillin, 5 mg/mL streptomycin solution. Cell lines were maintained at 37 °C in a humidified 5% CO2 atmosphere. They were sub-cultured at 72 h intervals using 0.25% trypsin/EDTA and 16,000 cells/cm^2 were seeded into a fresh medium.
(§2) MTT assay was used to assess the viability of U87 and U87-TxR cells (AppliChem GmbH, Taufkirchen, Germany). After reaching the confluence in 25 cm^2 tissue flasks, U87 and U87-TxR cells were trypsinized. Cells were seeded at the optimal density determined in initial experiments: 4000 cell/well into flat-bottomed 96-well tissue culture plates. Following the overnight incubation, cells were treated with Si306, pro-Si306 and dasatinib (1–25 µM) for 72 h. In addition, the combined effects of Si306 and pro-Si306 with PTX were evaluated in MDR GBM cells. To that end, two concentrations of Si306 and pro-Si306 (0.2 μM and 0.5 μM) were combined with increasing concentrations of PTX (0.1–2 μM) in simultaneous treatment. The sensitization of U87-TxR cells to PTX was studied after 72 h. Briefly, MTT was added to each well in a final concentration of 0.2 mg/mL for 4 h to induce the formation of the formazan in cells with intact/viable mitochondria. Then, produced formazan was dissolved in DMSO, and the absorbance was measured at 540 nm on a microplate reader (LKB 5060-006 Micro Plate Reader, Vienna, Austria). IC50 values were calculated by nonlinear regression analysis using GraphPad Prism 6.0 for Windows (GraphPad Software, La Jolla, CA, USA).

P-gp [1] = biological target: P-gp (Homo sapiens, UniProt P08183); assay: Rho 123 accumulation assay (P-gp inhibition) in U87-TxR cells; details: 30 min; for P-gp activity (Rho 123 intracellular accumulation): 5 µM; for IC50: IC50 of P-gp inhibition, Rho 123 accumulation
P-gp (Homo sapiens, UniProt P08183), sequence (P08183 whole entry): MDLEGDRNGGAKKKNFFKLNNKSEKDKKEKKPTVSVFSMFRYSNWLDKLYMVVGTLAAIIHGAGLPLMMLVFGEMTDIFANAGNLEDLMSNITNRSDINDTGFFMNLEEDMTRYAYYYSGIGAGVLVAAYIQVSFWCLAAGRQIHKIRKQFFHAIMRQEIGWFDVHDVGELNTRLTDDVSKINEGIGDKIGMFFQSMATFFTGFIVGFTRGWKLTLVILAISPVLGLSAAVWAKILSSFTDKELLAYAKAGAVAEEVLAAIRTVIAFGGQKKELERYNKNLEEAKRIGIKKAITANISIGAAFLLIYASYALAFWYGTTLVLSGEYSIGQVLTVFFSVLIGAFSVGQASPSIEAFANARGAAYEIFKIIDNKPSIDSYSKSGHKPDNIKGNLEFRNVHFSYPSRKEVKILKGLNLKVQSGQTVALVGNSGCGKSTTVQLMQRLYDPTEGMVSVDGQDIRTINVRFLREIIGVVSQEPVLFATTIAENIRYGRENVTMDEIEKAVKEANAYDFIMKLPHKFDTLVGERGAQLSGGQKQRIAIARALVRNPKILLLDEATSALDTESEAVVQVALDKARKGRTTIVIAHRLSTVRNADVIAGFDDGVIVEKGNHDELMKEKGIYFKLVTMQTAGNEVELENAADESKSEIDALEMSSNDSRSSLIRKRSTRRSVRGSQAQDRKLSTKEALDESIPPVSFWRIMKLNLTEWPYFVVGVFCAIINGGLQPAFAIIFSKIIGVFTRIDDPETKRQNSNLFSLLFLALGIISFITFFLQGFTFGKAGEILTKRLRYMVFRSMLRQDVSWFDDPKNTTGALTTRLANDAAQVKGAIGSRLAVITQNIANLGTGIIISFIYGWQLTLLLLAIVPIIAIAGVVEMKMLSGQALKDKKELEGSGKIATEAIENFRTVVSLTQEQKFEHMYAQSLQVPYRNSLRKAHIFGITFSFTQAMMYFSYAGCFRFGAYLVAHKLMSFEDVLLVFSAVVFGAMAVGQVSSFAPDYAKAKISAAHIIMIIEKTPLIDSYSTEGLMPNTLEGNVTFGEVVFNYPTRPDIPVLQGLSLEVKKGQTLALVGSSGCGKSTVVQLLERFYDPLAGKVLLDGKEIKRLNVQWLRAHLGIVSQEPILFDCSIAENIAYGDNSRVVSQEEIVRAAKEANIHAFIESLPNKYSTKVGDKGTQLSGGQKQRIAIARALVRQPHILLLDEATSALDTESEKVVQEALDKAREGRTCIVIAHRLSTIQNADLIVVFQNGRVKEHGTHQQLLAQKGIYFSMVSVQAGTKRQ
Experimental: At the end of the accumulation period, the cells were pelleted by centrifugation, washed with PBS and placed in cold PBS. The samples were kept on ice in a dark setting until the analysis on CyFlow Space Partec flow-cytometer (Sysmex Partec GmbH, Germany). […] A minimum of 10,000 events was assayed for each sample and the obtained results were analyzed using Summit Dako Software (ver. 4.3, Fort Collins, CO, USA).

MCF-7/Adr [2] = tested on: MCF-7/Adr; parameters: method as in PMID 25482933; details: 0.5 μM dasatinib, 72 h; cited from earlier work
MCF-7/Adr [3] = tested on: MCF-7/Adr; parameters: method as in PMID 25482933; details: read-out: IC50 cell growth; cited from earlier work
U87 = assay: MTT cell growth inhibition, U87; format: cell-based, Human; details: 72 h, n = 3
Experimental: as §1, §2

[4] = parameters: method as in PMID 17429625; details: mice; cited from earlier work
P-gp [5] = assay: Flow-cytometric analysis of P-glycoprotein expression in U87-TxR cells; format: cell-based, Human; details: 5 µM, 72 h, flow cytometry
Experimental: To assess the P-glycoprotein expression level in MDR GBM cells, flow-cytometry was employed. U87-TxR cells seeded in adherent 6-well plates were treated with 5 µM Si306, pro-Si306 or dasatinib for 72 h. Then, cells were collected by trypsinization, washed in PBS, and then directly immuno-stained by FITC-conjugated anti-P-gp antibody (BD Biosciences, Winnersh, Berkshire, UK). To discriminate the level of background fluorescence, an isotype control IgG2bκ (Abcam, Cambridge, United Kingdom) was used. The fluorescence of FITC-conjugated anti-P-gp was analyzed on assessed on the fluorescence channel 1 (FL1) of the CyFlow Space Partec flow-cytometer (Sysmex Partec GmbH, Görlitz, Germany). After gating to exclude the cell debris and dead cells, a minimum of 10,000 cells per sample was assayed. Summit Dako Software was used for the analyses of results obtained by flow-cytometry.

LN-229 = assay: MTT cell growth inhibition, LN-229; format: cell-based, Human; details: LN-229, MTT, n = 3
U87-TxR cells = assay: Reversal of paclitaxel resistance, MTT combination treatment; format: cell-based, Human; details: 72 h
Experimental: as §2

BT-138 = assay: Cell viability, BT-138 (Table S1); format: cell-based; details: BT-138, 24 h
Experimental: 1. Cell Growth Inhibition by Dasatinib, Si306 and Pro-Si306
GB cell lines BT138, T98G and A172 were treated with Si306 and pro-Si306 at concentrations ranging from 1 to 100 µM, or with DMSO as a control. Cell viability was evaluated 72 h after treatment for T98G and A172 cell lines and after 24 h for BT-138. In table S1 the IC50 values are reported.
Table S1. Sensitivity of glioblastoma multiforme (GBM) cells to Si306 and pro-Si306 expressed as IC50 […]
Figure S1. Rho 123 accumulation in U87-TxR cells treated with increasing concentrations of TQ (A), Dex-VER (B), Si306 (C) and pro-Si306 (D).
(1 picture or pasted object on this page, not shown here)

[6] = parameters: method as in PMID 28650650; details: pro-Si306 administrated p.o.; cited from earlier work
[7] = parameters: method as in PMID 28650650; details: cited from earlier work
CYP3A4 = biological target: T1, CYP3A4 (Homo sapiens, UniProt P08684); assay: CYP3A4 inhibition in human liver microsomes (testosterone 6β-hydroxylation); format: in vitro ADME
T1 construct: Incubations were carried out in a mix containing human liver microsomes (1 mg/mL of protein); from tissue; host or cells: human liver microsomes
T1 sequence (P08684 whole entry): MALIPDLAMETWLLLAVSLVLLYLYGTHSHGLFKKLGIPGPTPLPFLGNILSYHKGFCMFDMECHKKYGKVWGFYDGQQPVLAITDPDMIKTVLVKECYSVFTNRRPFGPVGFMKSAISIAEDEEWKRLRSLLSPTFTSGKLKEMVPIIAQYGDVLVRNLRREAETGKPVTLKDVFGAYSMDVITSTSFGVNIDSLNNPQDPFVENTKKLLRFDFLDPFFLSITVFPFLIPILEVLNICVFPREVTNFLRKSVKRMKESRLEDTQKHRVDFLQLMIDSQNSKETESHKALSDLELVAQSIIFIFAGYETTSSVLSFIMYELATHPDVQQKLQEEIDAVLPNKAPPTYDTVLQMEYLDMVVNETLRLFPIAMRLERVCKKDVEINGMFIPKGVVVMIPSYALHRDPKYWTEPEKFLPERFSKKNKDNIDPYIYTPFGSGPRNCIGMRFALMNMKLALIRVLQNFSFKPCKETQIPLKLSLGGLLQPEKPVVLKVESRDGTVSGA
Experimental: The inhibition of cytochrome P450 3A4 isoform by Si306 and pro-Si306 was measured by determining its activity on the substrate testosterone.
The activity of CYP3A4 was evaluated by measuring the 6β-hydroxylated testosterone formation (CYP3A4-specific reaction). The amount of 6β-hydroxylated metabolite was assessed in the absence and presence of Si306, pro-Si306 and ketoconazole (testosterone concentration of 100 μM in phosphate buffer 0.025 M, pH 7.4). […] Ketoconazole was used as standard selective inhibitor of CYP3A4 isoenzyme. Incubations were carried out in a mix containing human liver microsomes (1 mg/mL of protein) in phosphate buffer 0.025 M, pH 7.4, NADPH (200 μM) previously solubilized in a MgCl2 48 mM solution. The final incubation volume was 0.25 mL. After a 40 min-incubation period at 37 °C, the reaction was stopped by adding 1 mL of acetonitrile in the presence of corticosterone 2 μM as internal standard. The samples were centrifuged for 20 min at 5000 rpm. Concentrations of testosterone and its metabolite 6β-hydroxytestosterone were assessed by the HPLC method with UV detection. Calibration curve for quantitative analysis of 6β-hydroxytestosterone in the samples was obtained using commercial 6β-hydroxytestosterone purchased from Sigma Aldrich. For the statistical analysis, GraphPad InStat 3.0 (GraphPad Software, San Diego, CA, USA) was used.

[8] = tested on: Alpha-1-acid glycoprotein (AGP); assay: Binding fluorimetric assay, AGP; format: in vitro ADME; details: 10 µM AGP, fluorescence quenching
Experimental: (§3) In order to determine the binding affinity for Si306 and pro-Si306 to HSA (human serum albumin) and AGP (alpha-1-acid glycoprotein), the protein fluorescence has been monitored by spectroscopy. The quantitative analysis was performed using black 96 multiwell plates: in each well, a fixed concentration of HSA or AGP (10 µM in phosphate buffer 1 mM) was added with different amounts of the tested compound (0.1 µM to 500 µM). Plates were gently shacked and after 30 min at room temperature for equilibration, spectra were recorded from 300 to 400 nm, after excitation at 295 nm, by using a Perkin Elmer EnVision Multilabel Reader 2014 spectrofluorimeter. Finally, spectra were acquired with EnVision Manager ver.1.13 software (Walthman, MA, USA). The obtained non fluorescence quenching percentages were plotted against drug concentrations and the relative KD values were calculated using GraphPad software (version 6.0).

[9] = biological target: Human Serum Albumin (HSA) (Homo sapiens, UniProt P02768); assay: Binding fluorimetric assay, HSA; format: in vitro ADME; details: 10 µM HSA, fluorescence quenching
Human Serum Albumin (HSA), sequence (P02768 25-609): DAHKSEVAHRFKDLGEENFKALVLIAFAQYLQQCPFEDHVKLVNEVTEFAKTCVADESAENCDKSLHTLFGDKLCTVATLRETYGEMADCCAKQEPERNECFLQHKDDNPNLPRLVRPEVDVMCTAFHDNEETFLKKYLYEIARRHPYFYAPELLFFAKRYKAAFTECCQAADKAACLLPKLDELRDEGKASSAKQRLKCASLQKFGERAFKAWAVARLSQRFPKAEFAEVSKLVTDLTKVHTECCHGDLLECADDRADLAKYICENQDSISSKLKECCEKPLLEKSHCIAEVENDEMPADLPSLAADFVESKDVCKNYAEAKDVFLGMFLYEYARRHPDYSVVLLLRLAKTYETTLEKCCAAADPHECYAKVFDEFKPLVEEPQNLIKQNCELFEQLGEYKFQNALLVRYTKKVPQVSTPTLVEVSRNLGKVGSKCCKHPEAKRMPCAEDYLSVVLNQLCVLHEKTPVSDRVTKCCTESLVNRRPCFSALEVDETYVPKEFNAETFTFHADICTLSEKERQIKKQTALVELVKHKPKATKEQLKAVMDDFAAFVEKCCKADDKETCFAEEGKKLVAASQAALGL
Experimental: as §3

Cc1nc(Nc2ncc(C(=O)Nc3c(C)cccc3Cl)s2)cc(N2CCN(CCO)CC2)n1 [Dasatinib, dasatinib, reference compound]
IC50 (U87-TxR): 8.52 ± 0.691 µM
IC50 (U87-TxR; Homo sapiens, U87-TxR): 8.5 µM
P-gp activity (Rho 123 intracellular accumulation) (P-gp [1]): did not show a similar activity
reversal of doxorubicin resistance (MCF-7/Adr [2]): 3.35 fold
IC50 (MCF-7/Adr [3]): 40 µM
IC50 (U87): 6.14 ± 0.464 µM
IC50 (U87; Homo sapiens, U-87 MG): 6.1 µM
oral bioavailability [4]: 14%
P-gp expression (P-gp [5]): increased P-gp expression
IC50 (LN-229; Homo sapiens, LN-229, 72 h): 24.7 µM
IC50 (LN-229; 72 h): 24.7 ± 1.03 µM

CC(=O)O[C@H]1C(=O)[C@@]2(C)[C@H]([C@H](OC(=O)c3ccccc3)[C@]3(O)C[C@H](OC(=O)[C@H](O)[C@@H](NC(=O)c4ccccc4)c4ccccc4)C(C)=C1C3(C)C)[C@]1(OC(C)=O)CO[C@@H]1C[C@@H]2O [PTX, paclitaxel, reference compound]
IC50 (U87-TxR cells; Homo sapiens, PTX alone, read-out: IC50 ± S.D. for PXT): 2.84 ± 0.358 µM

COc1cc2c(cc1OC)CN(CCc1ccc(NC(=O)c3cc(OC)c(OC)cc3NC(=O)c3cnc4ccccc4c3)cc1)CC2 [TQ, tariquidar, reference compound]
IC50 (P-gp [1]; TQ values in nM (footnote a)): < 1 nM

CN1CCN(CCOC(=O)N(c2cccc(Br)c2)c2nc(SCCN3CCOCC3)nc3c2cnn3CC(Cl)c2ccccc2)CC1 (stereo not shown) [pro-Si306]
IC50 (BT-138): 30.7 ± 4.75 µM
detection in plasma and brain [6]: detected neither into the plasma nor in the brain
IC50 (U87-TxR; Homo sapiens, U87-TxR): 3.42 ± 0.359 µM
P-gp activity (Rho 123 intracellular accumulation) (P-gp [1]): significant suppression of P-gp activity
IC50 (P-gp [1]): 3800 nM and 3750 nM
solubility [7]: enhanced solubility
inhibition at 40 min (CYP3A4; pH 7.4, probe testosterone 100 μM (6β-hydroxylation), at a lower concentration (1–50 μM range)): -15%
interaction with CYP3A4 (CYP3A4; up to 50 μM): do not interact with CYP3A4
BMAX [8]: 96.69 ± 1.5
Kd at 30 min ([8]; alpha-1-acid glycoprotein (10 µM) in phosphate buffer): 9.28 ± 0.7 µM
BMAX [9]: 78.00 ± 4.2
Kd [9]: 21.4 ± 4.5 µM
IC50 (U87): 3.04 ± 0.343 µM
IC50 (U87; Homo sapiens, U-87 MG): ~3 µM
IC50 (LN-229; Homo sapiens, LN-229, 72 h): 3.07 ± 0.272 µM
Relative Reversal of PTX resistance (U87-TxR cells; 0.2 µM of the compound): 4.47 ***
Relative Reversal of PTX resistance (U87-TxR cells; 0.5 µM of the compound): 7.98
Relative Reversal of PTX resistance (U87-TxR cells; 0.5 µM of the compound, listed as Pro-Si306): 7.98 ***
